Assay results: patent publication US20070167492A1, “Molluscicidal agents” (priority 2003, published 2007)

How the values were obtained:
[1] = tested on: Deroceras reticulatum (grey field slug); assay: Example 2: pot re-test, treated winter wheat seed with 5 adult slugs per pot, 7 days; type: in vivo; details: for number of fecal pellets per pot relative to the untreated control / plants present relative to the untreated seed: after 2, 3 and 7 days; for number of damaged seeds relative to the untreated seed: two days after the start
How it was run: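 Pots sown with 40 treated winter wheat seeds on quartz sand over potting soil, each given 5 adult grey field slugs, kept at 18-19° C, ~95% RH, ~18 h light, no overhead irrigation; 4 replicates. Damaged seeds, intact plants, dead slugs and fecal pellets counted at 2, 3, 7 days; F-tests and Student tests.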

[2] = Example 1: pot test, treated winter wheat seed with 5 adult slugs per pot, 14 days; type: in vivo, Deroceras reticulatum; details: Example 1; winter wheat seed treatment
How it was run: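 Fludioxonil-disinfected winter wheat seed (Kampa, 40 per pot) sown on quartz sand over potting soil with 5 adult slugs per pot; ±15° C., ±90% RH, 12 h light/12 h dark, 4 replicates. Damaged seeds, plants, dead slugs and fecal pellets counted up to day 14; F-tests and Student-tests.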

[3] = Example 2, 8 ml formulated per kg seed, 2 days after sowing
[4] = Example 2, 8 ml formulated per kg seed, 3 days after sowing
[5] = Example 2, 8 ml formulated per kg seed, 7 days after sowing
[6] = Example 2, 12 ml formulated per kg seed, 2 days after sowing
[7] = Example 2, 12 ml formulated per kg seed, 3 days after sowing
[8] = Example 2, 12 ml formulated per kg seed, 7 days after sowing
[9] = Example 2, 2 ml formulated per kg seed, 2 days after sowing
[10] = Example 2, 2 ml formulated per kg seed, 3 days after sowing
[11] = Example 2, 2 ml formulated per kg seed, 7 days after sowing
[12] = Example 2, 4 ml formulated per kg seed, 2 days after sowing
[13] = Example 2, 4 ml formulated per kg seed, 3 days after sowing
[14] = Example 2, 4 ml formulated per kg seed, 7 days after sowing
[15] = Example 2, 10 ml formulated per kg seed, 2 days after sowing
[16] = Example 2, 10 ml formulated per kg seed, 3 days after sowing
[17] = Example 2, 10 ml formulated per kg seed, 7 days after sowing
[18] = Example 2, 3.8 ml formulated per kg seed, 2 days after sowing
[19] = Example 2, 3.8 ml formulated per kg seed, 3 days after sowing
[20] = Example 2, 3.8 ml formulated per kg seed, 7 days after sowing

O=[N+]([O-])NC1=NCCN1Cc1ccc(Cl)nc1 [imidacloprid]
result of seed treatment against slugs (conclusion) ([1]; Example 2): acceptable result | percentage of damaged seeds after 7 days ([1]; Example 2, 8 ml formulated per kg seed): 23% | Mean number of damaged seeds per pot [1, 3]: 4.8 | Mean number of dead slugs per pot [1, 3]: 0 | Mean number of damaged seeds per pot [1, 4]: 9.0 | Mean number of dead slugs per pot [1, 4]: 0 | Mean number of damaged seeds per pot [1, 5]: 9.0 | Mean number of dead slugs per pot [1, 5]: 1.0 | percentage of damaged seeds after 7 days ([1]; Example 2, 12 ml formulated per kg seed): 12% | Mean number of damaged seeds per pot [1, 6]: 1.8 | Mean number of dead slugs per pot [1, 6]: 0 | Mean number of damaged seeds per pot [1, 7]: 3.8 | Mean number of dead slugs per pot [1, 7]: 0 | Mean number of damaged seeds per pot [1, 8]: 4.8 | Mean number of dead slugs per pot [1, 8]: 0.8 | number of fecal pellets per pot relative to the untreated control ([1]; Example 2): significant reduction in the number of fecal pellets | plants present relative to the untreated seed ([1]; Example 2): significantly more plants present | number of damaged seeds relative to the untreated seed ([1]; Example 2): significant reduction in the number of damaged seeds | Mean number of fecal pellets per pot ([1]; dosage 8 ml, 2 days): 6 | Mean number of plants present per pot ([1]; dosage 8 ml, 2 days): 7.8 | Mean number of fecal pellets per pot ([1]; dosage 8 ml, 3 days): 17 | Mean number of plants present per pot ([1]; dosage 8 ml, 3 days): 12.3 | Mean number of fecal pellets per pot ([1]; dosage 8 ml, 7 days): 29 | Mean number of plants present per pot ([1]; dosage 8 ml, 7 days): 18.3 | number of utilizable plants after 7 days ([1]; dosage 8 ml, 7 days): 13.5 | Mean number of fecal pellets per pot ([1]; dosage 12 ml, 2 days): 3 | Mean number of plants present per pot ([1]; dosage 12 ml, 2 days): 16.0 | Mean number of fecal pellets per pot ([1]; dosage 12 ml, 3 days): 17 | Mean number of plants present per pot ([1]; dosage 12 ml, 3 days): 24.5 | Mean number of fecal pellets per pot ([1]; dosage 12 ml, 7 days): 28 | Mean number of plants present per pot ([1]; dosage 12 ml, 7 days): 28.3 | number of utilizable plants after 7 days ([1]; dosage 12 ml, 7 days): 22.8

O=CC=Cc1ccccc1 [cinnamaldehyde]
phytotoxicity [2]: phytotoxic | fecal pellets in comparison to the control ([1]; Example 2): equal number of fecal pellets | number of plants present relative to untreated ([1]; Example 2): no significantly different results | phytotoxic effect on the seeds ([1]; Example 2): phytotoxic effect on the seeds | reduction of damaged seeds relative to the untreated control ([1]; Example 2): more than 50% | result of seed treatment against slugs (conclusion) ([1]; Example 2): does not result in the desired effect | percentage of damaged seeds after 7 days ([1]; Example 2, 2 ml formulated per kg seed): 63% | Mean number of damaged seeds per pot [1, 9]: 8.8 | Mean number of dead slugs per pot [1, 9]: 0 | Mean number of damaged seeds per pot [1, 10]: 15.0 | Mean number of dead slugs per pot [1, 10]: 0 | Mean number of damaged seeds per pot [1, 11]: 25.0 | Mean number of dead slugs per pot [1, 11]: 0.5 | percentage of damaged seeds after 7 days ([1]; Example 2, 4 ml formulated per kg seed): 36% | Mean number of damaged seeds per pot [1, 12]: 5.0 | Mean number of dead slugs per pot [1, 12]: 0 | Mean number of damaged seeds per pot [1, 13]: 8.8 | Mean number of dead slugs per pot [1, 13]: 0 | Mean number of damaged seeds per pot [1, 14]: 14.3 | Mean number of dead slugs per pot [1, 14]: 0.8 | percentage of damaged seeds after 7 days ([1]; Example 2, 10 ml formulated per kg seed): 39% | Mean number of damaged seeds per pot [1, 15]: 6.0 | Mean number of dead slugs per pot [1, 15]: 0 | Mean number of damaged seeds per pot [1, 16]: 10.5 | Mean number of dead slugs per pot [1, 16]: 0 | Mean number of damaged seeds per pot [1, 17]: 15.8 | Mean number of dead slugs per pot [1, 17]: 0.5 | number of damaged seeds relative to the untreated seed ([1]; Example 2): significant reduction in the number of damaged seeds | Mean number of fecal pellets per pot ([1]; dosage 2 ml, 2 days): 45 | Mean number of plants present per pot ([1]; dosage 2 ml, 2 days): 0 | Mean number of fecal pellets per pot ([1]; dosage 2 ml, 3 days): 91 | Mean number of plants present per pot ([1]; dosage 2 ml, 3 days): 0 | Mean number of fecal pellets per pot ([1]; dosage 2 ml, 7 days): 124 | Mean number of plants present per pot ([1]; dosage 2 ml, 7 days): 0 | number of utilizable plants after 7 days ([1]; dosage 2 ml, 7 days): 0 | Mean number of fecal pellets per pot ([1]; dosage 4 ml, 2 days): 28 | Mean number of plants present per pot ([1]; dosage 4 ml, 2 days): 0 | Mean number of fecal pellets per pot ([1]; dosage 4 ml, 3 days): 58 | Mean number of plants present per pot ([1]; dosage 4 ml, 3 days): 0 | Mean number of fecal pellets per pot ([1]; dosage 4 ml, 7 days): 82 | Mean number of plants present per pot ([1]; dosage 4 ml, 7 days): 0 | number of utilizable plants after 7 days ([1]; dosage 4 ml, 7 days): 0 | Mean number of fecal pellets per pot ([1]; dosage 10 ml, 2 days): 42 | Mean number of plants present per pot ([1]; dosage 10 ml, 2 days): 0 | Mean number of fecal pellets per pot ([1]; dosage 10 ml, 3 days): 77 | Mean number of plants present per pot ([1]; dosage 10 ml, 3 days): 0 | Mean number of fecal pellets per pot ([1]; dosage 10 ml, 7 days): 91 | Mean number of plants present per pot ([1]; dosage 10 ml, 7 days): 0 | number of utilizable plants after 7 days ([1]; dosage 10 ml, 7 days): 0

CC1OC(C)OC(C)OC(C)O1 (stereo not shown) [metaldehyde]
dead slugs observed during the course of the experiment ([1]; Example 2): More dead slugs | result of seed treatment against slugs (conclusion) ([1]; Example 2): good action against slugs | percentage of damaged seeds after 7 days ([1]; Example 2, 3.8 ml formulated per kg seed): 1% | Mean number of damaged seeds per pot [1, 18]: 0.5 | Mean number of dead slugs per pot [1, 18]: 0.5 | Mean number of damaged seeds per pot [1, 19]: 0.3 | Mean number of dead slugs per pot [1, 19]: 0.8 | Mean number of damaged seeds per pot [1, 20]: 0.3 | Mean number of dead slugs per pot [1, 20]: 3.0 | number of fecal pellets per pot relative to the untreated control ([1]; Example 2): significant reduction in the number of fecal pellets | plants present relative to the untreated seed ([1]; Example 2): significantly more plants present | number of damaged seeds relative to the untreated seed ([1]; Example 2): significant reduction in the number of damaged seeds | Mean number of fecal pellets per pot ([1]; dosage 3.8 ml, 2 days): 0 | Mean number of plants present per pot ([1]; dosage 3.8 ml, 2 days): 20.8 | Mean number of fecal pellets per pot ([1]; dosage 3.8 ml, 3 days): 0 | Mean number of plants present per pot ([1]; dosage 3.8 ml, 3 days): 32.5 | Mean number of fecal pellets per pot ([1]; dosage 3.8 ml, 7 days): 5 | Mean number of plants present per pot ([1]; dosage 3.8 ml, 7 days): 35.8 | number of utilizable plants after 7 days ([1]; dosage 3.8 ml, 7 days): 34.3
